For 11 molecules, melting point and Ki results are on record in US6632813B1, “6-subtituted-7-heteroquinoxalinecarboxylic acid derivatives and addition salts thereof and processes for the preparation of both” (Kyorin Pharmaceutical Co., Ltd., priority 1999, dated 2003).

In general, melting point refers to the temperature, or range, at which the solid turns liquid.

Molecules are shown by their SMILES. A value given as a limit tells only on which side of the number the result lay.

One data set deals with AMPA receptor. Kind of data set: Binding experiment against AMPA receptor ([3H]-AMPA binding, crude synaptic membranes from cerebral cortex). Conditions: [3H]-AMPA 5 nmol/L, potassium thiocyanate 100 mmol/L, 30 minutes at 0° C., rat cerebral cortex crude synaptic membranes; IC50 converted to Ki; read-out: [3H]-AMPA (Ki: μmol/L). On the procedure: Binding Experiment Against AMPA Receptor
To a crude synaptic membranes preparation prepared from cerebral cortex in rat were added [^3H]-AMPA (final concentration: 5 nmol/L) that binds selectively to AMPA receptors, potassium thiocyanate (final concentration: 100 mmol/L) and testing compound, and the mixture was incubated for 30 minutes at 0° C. After the reaction was stopped by suction filtration, the radioactivity on filter was measured with liquid scintillation counter. The specific binding level of [^3H]-AMPA was determined by subtracting the non-specific binding level in the presence of glutamic acid (0.1 mmol/L) from total binding level. The [^3H]-AMPA binding in the absence of testing compound was put on 100, and the concentration of compound to decrease by 50% (IC50 value) was determined, which was converted to Ki value to calculate the binding capacity of each compound to AMPA receptor (Eur. J. Pharmacol., 1993, 246, 195-204).

`O=C(NCc1ccn(-c2cc3nc(C(=O)O)c(=O)[nH]c3cc2Cl)c1)Nc1ccc(C(=O)O)cc1` [Example 10, 7-(3-(((4-Carboxyphenyl)aminocarbonylamino)methyl)pyrrole-1-yl)-6-chloro-3,4-dihydro-3-oxoquinoxaline-2-carboxylic Acid] came in with a melting point of more than 300 °C. For the same molecule, the Ki on AMPA receptor was determined as 0.067 µmol/L. The corresponding values for `COc1cc2[nH]c(=O)c(C(=O)O)nc2cc1-n1ccc(CNC(=O)Nc2ccc(C(=O)O)cc2)c1` [Example 11, 7-(3-(((4-Carboxyphenyl)aminocarbonylamino)methyl)pyrrole-1-yl)-3,4-dihydro-6-methoxy-3-oxoquinoxaline-2-carboxylic Acid] are more than 300 °C and 0.323 µmol/L. `Cc1cc2[nH]c(=O)c(C(=O)O)nc2cc1-n1ccc(CNC(=O)Nc2ccc(C(=O)O)cc2)c1` [Example 12, 7-(3-(((4-Carboxyphenyl)aminocarbonylamino)methyl)pyrrole-1-yl)-3,4-dihydro-6-methyl-3-oxoquinoxaline-2-carboxylic Acid] registered a melting point of more than 300 °C. For the same molecule, the Ki at AMPA receptor came to 0.178 µmol/L. The corresponding values for `O=C(NCc1ccn(-c2cc3nc(C(=O)O)c(=O)[nH]c3cc2F)c1)Nc1ccc(C(=O)O)cc1` [Example 13] are more than 300 °C and 0.924 µmol/L. For `O=C(NCc1ccn(-c2cc3nc(C(=O)O)c(=O)[nH]c3cc2Cl)c1)Nc1ccccc1` [Example 26], the melting point was 171 to 173 °C (dec.). Regarding `CC(C)NC(=O)NCc1ccn(-c2cc3nc(C(=O)O)c(=O)[nH]c3cc2Cl)c1` [Example 37], the melting point is 158 to 160 °C (dec.). For the molecule `COc1ccc(NC(=O)NCc2ccn(-c3cc4nc(C(=O)O)c(=O)[nH]c4cc3Cl)c2)cc1` [Example 38, 6-Chloro-3,4-dihydro-7-(3-(((4-methoxyphenyl)aminocarbonylamino)methyl)pyrrole-1-yl)-3-oxoquinoxaline-2-carboxylic Acid], the melting point was 208 to 210 °C (dec.).

In the case of `O=C(NCc1ccn(-c2cc3nc(C(=O)O)c(=O)[nH]c3cc2Cl)c1)Nc1ccc(Cl)cc1` [Example 39, 6-Chloro-7-(3-(((4-chlorophenyl)aminocarbonylamino)methyl)pyrrole-1-yl)-3,4-dihydro-3-oxoquinoxaline-2-carboxylic Acid], the melting point was 193 to 195 °C (dec.). For the molecule `O=C(NCc1ccn(-c2cc3nc(C(=O)O)c(=O)[nH]c3cc2Cl)c1)Nc1cccc2ccccc12` [Example 40, 6-Chloro-3,4-dihydro-7-(3-(((1-naphthyl)aminocarbonylamino)methyl)pyrrole-1-yl)-3-oxoquinoxaline-2-carboxylic Acid], the melting point lay in the range of 196 to 198 °C.

As to `O=C(Nc1ccccc1)OCc1cn(-c2cc3nc(C(=O)O)c(=O)[nH]c3cc2Cl)cn1` [Example 47, 6-Chloro-3,4-dihydro-3-oxo-7-(4-((phenylcarbamoyloxy)methyl)imidazole-1-yl)quinoxaline-2-carboxylic Acid], the melting point is 199 to 201 °C (dec.). In the case of `O=C(Nc1ccc(C(=O)O)cc1)OCc1cn(-c2cc3nc(C(=O)O)c(=O)[nH]c3cc2Cl)cn1` [Example 53, 7-(4-(((4-Carboxyphenyl)carbamoyloxy)methyl)imidazole-1-yl)-6-chloro-3,4-dihydro-3-oxoquinoxaline-2-carboxylic Acid], the melting point was 246 to 248 °C (dec.).
